From patent US10118935B2, “Melampomagnolide B dimers” (priority 2014, dated 2018)

What was measured:
CCRF-CEM = experiment: NCI 60 cell line five dose, Leukemia
MOLT-4 = experiment: NCI 60 cell line five dose, Leukemia
SR = experiment: NCI 60 cell line five dose, Leukemia
LOX IMVI = experiment: NCI 60 cell line five dose, Melanoma
MDA-MB-435 = experiment: NCI 60 cell line five dose, Melanoma
SK-MEL-2 = experiment: NCI 60 cell line five dose, Melanoma
SK-MEL-5 = experiment: NCI 60 cell line five dose, Melanoma
UACC-257 = experiment: NCI 60 cell line five dose, Melanoma
SNB-75 = experiment: NCI 60 cell line five dose, CNS Cancer
A498 = experiment: NCI 60 cell line five dose, Renal Cancer
ACHN = experiment: NCI 60 cell line five dose, Renal Cancer
CAKI-1 = experiment: NCI 60 cell line five dose, Renal Cancer
MCF7 = experiment: NCI 60 cell line five dose, Breast Cancer
HS 578T = experiment: NCI 60 cell line five dose, Breast Cancer; details: for Percent Growth: HS578T
T-47D = experiment: NCI 60 cell line five dose, Breast Cancer
OVCAR-4 = experiment: NCI 60 cell line five dose, Ovarian Cancer
PC-3 = experiment: NCI 60 cell line five dose, Prostate Cancer
A549/ATCC = experiment: NCI 60 cell line five dose, Non-Small Cell Lung Cancer
NCI-H226 = experiment: as above
NCI-H460 = experiment: as above

Compound: C=C1C(=O)O[C@H]2[C@H]1CC/C(COC(=O)NCCCCNC(=O)OC/C1=C/CC[C@@]3(C)O[C@H]3[C@H]3OC(=O)C(=C)[C@@H]3CC1)=C\CC[C@@]1(C)O[C@@H]21 [JVM 3-54, bis(((1aR,7aS,10aS,10bS,E)-1a-Methyl-8-methylene-9-oxo-1a,2,3,6,7,7a,8,9,10a,10b-decahydrooxireno[2′,3′:9,10]cyclodeca[1,2-b]furan-5-yl)methyl)butane-1,4-diyldicarbamate]
- GI50 (CCRF-CEM): 0.272 µM
- TGI (CCRF-CEM): 0.845 µM
- Percent Growth (CCRF-CEM; Log10 Concentration −4.0): −50%
- Percent Growth (CCRF-CEM; Log10 Concentration −5.0): −46%
- Percent Growth (CCRF-CEM; Log10 Concentration −6.0): −7%
- Percent Growth (CCRF-CEM; Log10 Concentration −7.0): 94%
- Percent Growth (CCRF-CEM; Log10 Concentration −8.0): 98%
- CC50 (CCRF-CEM; read-out: LC50): > 100 µM
- GI50 (MOLT-4): 1.47 µM
- TGI (MOLT-4): 4.15 µM
- Percent Growth (MOLT-4; Log10 Concentration −4.0): −41%
- Percent Growth (MOLT-4; Log10 Concentration −5.0): −42%
- Percent Growth (MOLT-4; Log10 Concentration −6.0): 68%
- Percent Growth (MOLT-4; Log10 Concentration −7.0): 98%
- Percent Growth (MOLT-4; Log10 Concentration −8.0): 98%
- CC50 (MOLT-4; read-out: LC50): > 100 µM
- GI50 (SR): 0.549 µM
- TGI (SR): 3.51 µM
- Percent Growth (SR; Log10 Concentration −4.0): −34%
- Percent Growth (SR; Log10 Concentration −5.0): −29%
- Percent Growth (SR; Log10 Concentration −6.0): 35%
- Percent Growth (SR; Log10 Concentration −7.0): 94%
- Percent Growth (SR; Log10 Concentration −8.0): 93%
- CC50 (SR; read-out: LC50): > 100 µM
- GI50 (LOX IMVI): 0.519 µM
- TGI (LOX IMVI): 1.92 µM
- Percent Growth (LOX IMVI; Log10 Concentration −4.0): −74%
- Percent Growth (LOX IMVI; Log10 Concentration −5.0): −84%
- Percent Growth (LOX IMVI; Log10 Concentration −6.0): 33%
- Percent Growth (LOX IMVI; Log10 Concentration −7.0): 93%
- Percent Growth (LOX IMVI; Log10 Concentration −8.0): 93%
- CC50 (LOX IMVI; read-out: LC50): 5.15 µM
- GI50 (MDA-MB-435): 1.24 µM
- TGI (MDA-MB-435): 3.41 µM
- Percent Growth (MDA-MB-435; Log10 Concentration −4.0): −97%
- Percent Growth (MDA-MB-435; Log10 Concentration −5.0): −53%
- Percent Growth (MDA-MB-435; Log10 Concentration −6.0): 60%
- Percent Growth (MDA-MB-435; Log10 Concentration −7.0): 82%
- Percent Growth (MDA-MB-435; Log10 Concentration −8.0): 100%
- CC50 (MDA-MB-435; read-out: LC50): 9.42 µM
- GI50 (SK-MEL-2): 1.77 µM
- TGI (SK-MEL-2): 4.89 µM
- Percent Growth (SK-MEL-2; Log10 Concentration −4.0): −67%
- Percent Growth (SK-MEL-2; Log10 Concentration −5.0): −35%
- Percent Growth (SK-MEL-2; Log10 Concentration −6.0): 78%
- Percent Growth (SK-MEL-2; Log10 Concentration −7.0): 89%
- Percent Growth (SK-MEL-2; Log10 Concentration −8.0): 101%
- CC50 (SK-MEL-2; read-out: LC50): 29.3 µM
- GI50 (SK-MEL-5): 3.33 µM
- TGI (SK-MEL-5): 11.8 µM
- Percent Growth (SK-MEL-5; Log10 Concentration −4.0): −85%
- Percent Growth (SK-MEL-5; Log10 Concentration −5.0): 7%
- Percent Growth (SK-MEL-5; Log10 Concentration −6.0): 98%
- Percent Growth (SK-MEL-5; Log10 Concentration −7.0): 100%
- Percent Growth (SK-MEL-5; Log10 Concentration −8.0): 97%
- CC50 (SK-MEL-5; read-out: LC50, SK-MEL-6): 41.4 µM
- GI50 (UACC-257): 1.68 µM
- TGI (UACC-257): 4.99 µM
- Percent Growth (UACC-257; Log10 Concentration −4.0): −82%
- Percent Growth (UACC-257; Log10 Concentration −5.0): −32%
- Percent Growth (UACC-257; Log10 Concentration −6.0): 74%
- Percent Growth (UACC-257; Log10 Concentration −7.0): 92%
- Percent Growth (UACC-257; Log10 Concentration −8.0): 95%
- CC50 (UACC-257; read-out: LC50): 22.9 µM
- GI50 (SNB-75): 2.19 µM
- TGI (SNB-75): 16.5 µM
- Percent Growth (SNB-75; Log10 Concentration −4.0): −65%
- Percent Growth (SNB-75; Log10 Concentration −5.0): 18%
- Percent Growth (SNB-75; Log10 Concentration −6.0): 67%
- Percent Growth (SNB-75; Log10 Concentration −7.0): 64%
- Percent Growth (SNB-75; Log10 Concentration −8.0): 70%
- CC50 (SNB-75; read-out: LC50): 66.3 µM
- GI50 (A498): 6.36 µM
- TGI (A498): 18.9 µM
- Percent Growth (A498; Log10 Concentration −4.0): −99%
- Percent Growth (A498; Log10 Concentration −5.0): 38%
- Percent Growth (A498; Log10 Concentration −6.0): 99%
- Percent Growth (A498; Log10 Concentration −7.0): 94%
- Percent Growth (A498; Log10 Concentration −8.0): 97%
- CC50 (A498; read-out: LC50): 43.9 µM
- GI50 (ACHN): 3.44 µM
- TGI (ACHN): 12.9 µM
- Percent Growth (ACHN; Log10 Concentration −4.0): −91%
- Percent Growth (ACHN; Log10 Concentration −5.0): 11%
- Percent Growth (ACHN; Log10 Concentration −6.0): 95%
- Percent Growth (ACHN; Log10 Concentration −7.0): 97%
- Percent Growth (ACHN; Log10 Concentration −8.0): 100%
- CC50 (ACHN; read-out: LC50): 39.8 µM
- GI50 (CAKI-1): 10.8 µM
- TGI (CAKI-1): 23 µM
- Percent Growth (CAKI-1; Log10 Concentration −4.0): −97%
- Percent Growth (CAKI-1; Log10 Concentration −5.0): 55%
- Percent Growth (CAKI-1; Log10 Concentration −6.0): 91%
- Percent Growth (CAKI-1; Log10 Concentration −7.0): 90%
- Percent Growth (CAKI-1; Log10 Concentration −8.0): 93%
- CC50 (CAKI-1; read-out: LC50): 49.1 µM
- TGI (MCF7): 1.8 µM
- Percent Growth (MCF7; Log10 Concentration −4.0): −42%
- Percent Growth (MCF7; Log10 Concentration −5.0): −69%
- Percent Growth (MCF7; Log10 Concentration −6.0): 24%
- Percent Growth (MCF7; Log10 Concentration −7.0): 87%
- Percent Growth (MCF7; Log10 Concentration −8.0): 92%
- GI50 (HS 578T; HS 578T): 2.54 µM
- TGI (HS 578T; HS 578T): 8.14 µM
- Percent Growth (HS 578T; Log10 Concentration −4.0): −27%
- Percent Growth (HS 578T; Log10 Concentration −5.0): −9%
- Percent Growth (HS 578T; Log10 Concentration −6.0): 90%
- Percent Growth (HS 578T; Log10 Concentration −7.0): 92%
- Percent Growth (HS 578T; Log10 Concentration −8.0): 90%
- GI50 (T-47D): 1.51 µM
- TGI (T-47D): 4.17 µM
- Percent Growth (T-47D; Log10 Concentration −4.0): −32%
- Percent Growth (T-47D; Log10 Concentration −5.0): −43%
- Percent Growth (T-47D; Log10 Concentration −6.0): 70%
- Percent Growth (T-47D; Log10 Concentration −7.0): 93%
- Percent Growth (T-47D; Log10 Concentration −8.0): 95%
- CC50 (T-47D; read-out: LC50): > 100 µM
- GI50 (OVCAR-4): 1.77 µM
- Percent Growth (OVCAR-4; Log10 Concentration −4.0): −98%
- Percent Growth (OVCAR-4; Log10 Concentration −5.0): −5%
- Percent Growth (OVCAR-4; Log10 Concentration −6.0): 68%
- Percent Growth (OVCAR-4; Log10 Concentration −7.0): 82%
- Percent Growth (OVCAR-4; Log10 Concentration −8.0): 93%
- CC50 (OVCAR-4; read-out: LC50): 30.5 µM
- GI50 (PC-3): 2.55 µM
- TGI (PC-3): 8.05 µM
- Percent Growth (PC-3; Log10 Concentration −4.0): −93%
- Percent Growth (PC-3; Log10 Concentration −5.0): −9%
- Percent Growth (PC-3; Log10 Concentration −6.0): 91%
- Percent Growth (PC-3; Log10 Concentration −7.0): 99%
- Percent Growth (PC-3; Log10 Concentration −8.0): 99%
- CC50 (PC-3; read-out: LC50): 30.5 µM
- GI50 (A549/ATCC): 8.02 µM
- TGI (A549/ATCC): 23.1 µM
- Percent Growth (A549/ATCC; Log10 Concentration −4.0): −79%
- Percent Growth (A549/ATCC; Log10 Concentration −5.0): 45%
- Percent Growth (A549/ATCC; Log10 Concentration −6.0): 99%
- Percent Growth (A549/ATCC; Log10 Concentration −7.0): 99%
- Percent Growth (A549/ATCC; Log10 Concentration −8.0): 100%
- CC50 (A549/ATCC; read-out: LC50): 58.7 µM
- GI50 (NCI-H226): 11.4 µM
- TGI (NCI-H226): 30.5 µM
- Percent Growth (NCI-H226; Log10 Concentration −4.0): −60%
- Percent Growth (NCI-H226; Log10 Concentration −5.0): 57%
- Percent Growth (NCI-H226; Log10 Concentration −6.0): 100%
- Percent Growth (NCI-H226; Log10 Concentration −7.0): 97%
- Percent Growth (NCI-H226; Log10 Concentration −8.0): 98%
- CC50 (NCI-H226; read-out: LC50): 81.6 µM
- GI50 (NCI-H460): 4.61 µM
- TGI (NCI-H460): 18 µM
- Percent Growth (NCI-H460; Log10 Concentration −4.0): −71%
- Percent Growth (NCI-H460; Log10 Concentration −5.0): 24%
- Percent Growth (NCI-H460; Log10 Concentration −6.0): 101%
- Percent Growth (NCI-H460; Log10 Concentration −7.0): 103%
- Percent Growth (NCI-H460; Log10 Concentration −8.0): 102%
- CC50 (NCI-H460; read-out: LC50): 60.7 µM
